Laboratory results as given in the NIST ThermoML archive (doi:10.1016/j.jct.2018.07.014).
± gives the expanded uncertainty stated by the source.

Conditions: 298.2 K; 101.33 kPa; Liquid; buoyancy

SMILES | mass density [kg/m3]
CCCOC(C)=O [propyl ethanoate] | 881.51 ± 2.9
CCCCC(C)=O [2-hexanone] | 806.37 ± 2.8
Cc1cc(C)cc(C)c1 [1,3,5-trimethylbenzene] | 859.7 ± 2.9

Same assay, conditions: 323.2 K; 101.33 kPa; Liquid; buoyancy

SMILES | mass density [kg/m3]
Cc1ccc(O)cc1 [4-methylphenol] | 1011.3 ± 3.2
Cc1cccc(O)c1 [3-methylphenol] | 1009.2 ± 3.1
Cc1ccccc1O [2-methylphenol] | 1018.8 ± 3.2
